In brackets after ≈: the same amount, converted by molar mass. Read-outs that look alike come from different tables or passages of the source.
What was measured:
Format in all cases: cell-based
K. pneumoniae strains = assay: MIC against K. pneumoniae strains (Table M8); conditions: for MIC: Klebsiella pneumoniae, K. pneumoniae 10031
E. coli strains = assay: MIC against E. coli strains (Table M7); conditions: for MIC: Escherichia coli, ATCC25922, E. coli ATCC 25922
Text: (§1) We have collected MIC data for a total of 50 novel macrolides that this platform has produced against over 21 unique strains of B. subtilis, E. coli, S. aureus, S. pneumoniae, and H. influenzae, including several multidrug-resistant strains, with a special focus on macrolide resistant mechanisms (vide supra). Azithromycin was included as a control macrolide. CLSI standard procedures for broth dilution MIC determination were used. […] These genotypes can be constitutive or inducible. The finding that C4-epi (unnatural) isomers of the “azaketolide” macrolide class have enhanced activities relative to C4 natural isomers is very exciting.

H. influenzae strains = assay: MIC against H. influenzae strains (Table M8); conditions: for MIC: Haemophilus influenzae
Text: as §1

A. baumannii strains = assay: MIC against A. baumannii strains (Table M8); conditions: for MIC: Acinetobacter baumannii, BAA747, A. baumannii BAA747-1
S. aureus strains = assay: MIC against S. aureus strains (Table M7); conditions: for MIC: Staphylococcus aureus
Text: as §1

E. faecalis strains = assay: MIC against E. faecalis strains (Table M8); conditions: for MIC: Enterococcus faecalis, E. faecalis 29212
S. pneumoniae strains = assay: MIC against S. pneumoniae strains (Tables M7, M8); conditions: for MIC: Streptococcus pneumoniae
Text: CLSI standard procedures for broth dilution MIC determination were used. […] These genotypes can be constitutive or inducible.

[1] = H. influenzae 49247, read-out: MIC H. influenzae (49247)
[2] = H. influenzae 49766, read-out: MIC H. influenzae (49766)
[3] = ATCC29213, S. aureus ATCC 29213, read-out: MIC S. aureus (ATCC 29213)
[4] = S. aureus 183, read-out: MIC S. aureus (183)
[5] = S. aureus 506, read-out: MIC S. aureus (506)
[6] = S. aureus 1708, read-out: MIC S. aureus (1708)
[7] = USA300, S. aureus USA300, read-out: MIC S. aureus (USA300)
[8] = S. pneumoniae 160, read-out: MIC S. pneumonae (160)
[9] = S. pneumoniae 1509, read-out: MIC S. pneumoniae (1509)
[10] = S. pneumoniae 1533, read-out: MIC S. pneumoniae (1533)
[11] = S. pneumoniae 1537, read-out: MIC S. pneumoniae (1537)
[12] = S. pneumoniae 49619, read-out: MIC S. pneumoniae (49619)

Row | SMILES | MIC (K. pneumoniae strains) [µg/mL] | MIC (E. coli strains) [µg/mL] | MIC (H. influenzae strains; [1]) [µg/mL] | MIC (H. influenzae strains; [2]) [µg/mL] | MIC (A. baumannii strains) [µg/mL] | MIC (S. aureus strains; [3]) [µg/mL] | MIC (S. aureus strains; [4]) [µg/mL] | MIC (S. aureus strains; [5]) [µg/mL] | MIC (S. aureus strains; [6]) [µg/mL] | MIC (S. aureus strains; [7]) [µg/mL] | MIC (E. faecalis strains) [µg/mL] | MIC (S. pneumoniae strains; [8]) [µg/mL] | MIC (S. pneumoniae strains; [9]) [µg/mL] | MIC (S. pneumoniae strains; [10]) [µg/mL] | MIC (S. pneumoniae strains; [11]) [µg/mL] | MIC (S. pneumoniae strains; [12]) [µg/mL] | further results
1 | CC[C@H]1OC(=O)[C@H](C)C(O)[C@H](C)[C@@H](O[C@@H]2OC(C)CC(N(C)C)C2O)[C@](C)(OC)C[C@@H](C)CN[C@H](C)[C@H]2N(CCCCn3cc(-c4cccc(N)c4)nn3)C(=O)O[C@]12C (stereo partly drawn) [FSM-21340] | 2 (≈ 2.41 µM) | 4 (≈ 4.82 µM) | 1 (≈ 1.2 µM) | 4 (≈ 4.82 µM) | 8 (≈ 9.64 µM) | 16 (≈ 19.3 µM) | > 32 | > 32 | > 32 | 16 (≈ 19.3 µM) | 8 (≈ 9.64 µM) | 0.5 (≈ 0.602 µM) | > 32 | > 32 | > 32 | 0.5 (≈ 0.602 µM) | 
2 | CCC1OC(=O)C(Cc2cn[nH]c2)C(=O)C(C)C(OC2OC(C)CC(N(C)C)C2O)C(C)(OCC=Cc2cnc3ccccc3c2)CC(C)CNC(C)C2NC(=O)OC12C (mixture of isomers) [FSM-21264] |  |  |  |  |  |  |  |  |  |  |  |  |  |  |  |  | MIC K. pneumoniae (10031) (K. pneumoniae strains): >32 µg/mL; MIC E. coli (ATCC 25922) (E. coli strains; E. coli ATCC 25922): >32 µg/mL; MIC H. influenzae (49247) (H. influenzae strains; H. influenzae 49247): 8 µg/mL; MIC H. influenzae (49766) (H. influenzae strains; H. influenzae 49766): >32 µg/mL; MIC A. baumannii (BAA747-1) (A. baumannii strains; A. baumannii BAA747-1): >32 µg/mL; MIC S. aureus (183) (S. aureus strains; S. aureus 183): >32 µg/mL; MIC S. aureus (506) (S. aureus strains; S. aureus 506): >32 µg/mL; MIC S. aureus (1708) (S. aureus strains; S. aureus 1708): >32 µg/mL; MIC S. aureus (ATCC 29213) (S. aureus strains; S. aureus ATCC 29213): >32 µg/mL; MIC S. aureus (USA300) (S. aureus strains; S. aureus USA300): >32 µg/mL; MIC E. faecalis (29212) (E. faecalis strains): >32 µg/mL; MIC S. pneumonae (160) (S. pneumoniae strains; S. pneumoniae 160): 4 µg/mL; MIC S. pneumoniae (1509) (S. pneumoniae strains; S. pneumoniae 1509): >32 µg/mL; MIC S. pneumoniae (1533) (S. pneumoniae strains; S. pneumoniae 1533): >32 µg/mL; MIC S. pneumoniae (1537) (S. pneumoniae strains; S. pneumoniae 1537): >32 µg/mL; MIC S. pneumoniae (49619) (S. pneumoniae strains; S. pneumoniae 49619): 2 µg/mL
3 | CC[C@H]1OC(=O)[C@H](C)C(=O)[C@H](C)[C@@H](O[C@@H]2OC(C)CC(N(C)C)C2O)[C@](C)(OC)C[C@@H](C)CN(C)[C@H](C)[C@H]2N(CCCCn3cc(-c4cccc(N)c4)nn3)C(=O)O[C@]12C (stereo partly drawn) [FSM-21339] | 4 (≈ 4.75 µM) | 16 (≈ 19 µM) | 2 (≈ 2.38 µM) | 8 (≈ 9.5 µM) | 32 (≈ 38 µM) | 2 (≈ 2.38 µM) | > 32 | > 32 | 4 (≈ 4.75 µM) | 2 (≈ 2.38 µM) | 0.5 (≈ 0.594 µM) | 0.125 (≈ 0.148 µM) | 1 (≈ 1.19 µM) | > 32 | > 32 | ≤ 0.0625 | 
4 | CN(C)c1ccc(O)c2c1C[C@H]1C[C@H]3[C@H](N(C)C)C(O)=C(C(N)=O)C(=O)[C@@]3(O)C(O)=C1C2=O [Minocycline, minocycline, reference compound] | 0.5 (≈ 1.09 µM) | 1 (≈ 2.19 µM) | 4 (≈ 8.74 µM) | 8 (≈ 17.5 µM) | 0.5 (≈ 1.09 µM) | 0.25 (≈ 0.546 µM) | 16 (≈ 35 µM) | 2 (≈ 4.37 µM) | 0.5 (≈ 1.09 µM) | 0.25 (≈ 0.546 µM) | 8 (≈ 17.5 µM) | 8 (≈ 17.5 µM) | 16 (≈ 35 µM) | 8 (≈ 17.5 µM) | 8 (≈ 17.5 µM) | 0.25 (≈ 0.546 µM) | 
5 | CC[C@H]1OC(=O)[C@H](C)C(=O)[C@H](C)[C@@H](O[C@@H]2OC(C)CC(N(C)C)C2O)[C@](C)(OC)C[C@@H](C)CN[C@H](Cc2ccccc2)[C@H]2N(CCCCn3cc(-c4cccc(N)c4)nn3)C(=O)O[C@]12C (stereo partly drawn) [FSM-60353] | 8 (≈ 8.85 µM) | 32 (≈ 35.4 µM) | 2 (≈ 2.21 µM) | 8 (≈ 8.85 µM) | 32 (≈ 35.4 µM) | 0.5 (≈ 0.553 µM) | > 32 | > 32 | 0.5 (≈ 0.553 µM) | 0.5 (≈ 0.553 µM) | 0.25 (≈ 0.276 µM) | ≤ 0.0625 | 1 (≈ 1.11 µM) | 32 (≈ 35.4 µM) | 32 (≈ 35.4 µM) | ≤ 0.0625 | 
6 | CC[C@H]1OC(=O)C(C)(F)C(=O)[C@H](C)[C@@H](O[C@@H]2OC(C)CC(N(C)C)C2O)[C@](C)(OC/C=C/c2cnc3ccccc3c2)C[C@@H](C)CN[C@H](C)[C@H]2NC(=O)O[C@@]21C (stereo partly drawn) [FSM-21088] | > 32 | > 32 | 8 (≈ 10.2 µM) | > 32 | > 32 | 16 (≈ 20.4 µM) | > 32 | > 32 | 8 (≈ 10.2 µM) | 16 (≈ 20.4 µM) | 8 (≈ 10.2 µM) | 0.5 (≈ 0.637 µM) | > 32 | > 32 | > 32 | 2 (≈ 2.55 µM) | 
7 | CC[C@H]1OC(=O)[C@H](C)C(=O)[C@H](C)[C@@H](O[C@@H]2OC(C)CC(N(C)C)C2O)[C@](C)(OC)C[C@@H](C)CN[C@H](C)[C@H]2N(C/C=C/Cn3cc(-c4ccccn4)nn3)C(=O)O[C@]12C (stereo partly drawn) [FSM-70153] | 2 (≈ 2.46 µM) | 4 (≈ 4.93 µM) | 0.5 (≈ 0.616 µM) | 2 (≈ 2.46 µM) | 16 (≈ 19.7 µM) | 1 (≈ 1.23 µM) | > 32 | > 32 | 4 (≈ 4.93 µM) | 2 (≈ 2.46 µM) | 0.25 (≈ 0.308 µM) | 0.125 (≈ 0.154 µM) | 4 (≈ 4.93 µM) | > 32 | > 32 | ≤ 0.0625 | 
8 | CC[C@H]1OC(=O)[C@H](C)C(=O)[C@H](C)[C@@H](O[C@@H]2OC(C)CC(N(C)C)C2O)[C@](C)(OC)CC(C)N[C@H](C)[C@H]2N(CCCCn3cc(-c4cccc(N)c4)nn3)C(=O)O[C@]12C (single isomer, unassigned) [FSM-30689] | > 32 | > 32 | 16 (≈ 19.7 µM) | > 32 | > 32 | > 32 | > 32 | > 32 | > 32 | > 32 | 32 (≈ 39.3 µM) | 16 (≈ 19.7 µM) | 16 (≈ 19.7 µM) | > 32 | > 32 |  | MIC S. pneumoniae (49619) (S. pneumoniae strains; S. pneumoniae 49619): 8 µg/mL (≈ 9.83 µM)
9 | CC[C@H]1OC(=O)[C@H](C)C(=O)[C@H](C)[C@@H](O[C@@H]2OC(C)CC(N(C)C)C2O)[C@](C)(OC)C[C@@H](C)CN[C@H](CCN(C)C)[C@H]2N(CCCCn3cc(-c4cccc(N)c4)nn3)C(=O)O[C@]12C (stereo partly drawn) [FSM-11052] | 16 (≈ 18.1 µM) | > 32 | 8 (≈ 9.04 µM) | 32 (≈ 36.2 µM) | > 32 | 8 (≈ 9.04 µM) | > 32 | > 32 | 4 (≈ 4.52 µM) | 32 (≈ 36.2 µM) | 2 (≈ 2.26 µM) | 0.5 (≈ 0.565 µM) | 0.5 (≈ 0.565 µM) | > 32 | > 32 | 0.125 (≈ 0.141 µM) | 
